Source: patent US20200362303A1, “MAINTENANCE-AND-AMPLIFICATION METHOD AND DIFFERENTIATION INDUCTION METHOD FOR PRIMORDIAL GERM CELLS/PRIMORDIAL GERM CELL-LIKE CELLS” (KYOTO UNIVERSITY, priority 2017, published 2020)

Legend:
[1] = tested on: d4 PGCLC; assay: Measurement of intracellular cAMP concentration (cAMPGlo Max assay); type: cell-based, mouse; conditions: pretreated 30 min at room temperature
Description: The intracellular cAMP concentration was measured using cAMPGlo Max assay kit (Promega) according to the manufacturer's instructions. A standard curve using purified cAMP was prepared by calculating the Δrelative light unit (ΔRLU) (RLU [0 nM]-RLU [X nM]). For each sample, 1×10^4 d4 PGCLC was pretreated with forskolin and/or rolipram for 30 min at room temperature and the ΔRLU (RLU [untreated sample-RLU [treated sample]) was calculated. An increase in the intracellular cAMP level due to chemical treatments was inferred from the cAMP standard curve. Three biological replicates were analyzed for each sample.

[2] = tested on: cultured PGCLC; assay: Immunofluorescence analysis of STRA8, SCP3, DDX4 in cultured PGCLC; type: cell-based, mouse; conditions: cultured PGCLC, c9; BMP4, 5, 7 combined with RA; BMS493 with BMP2; LDN193189 with RA and BMP2
Description: (§1) The PGC/PGCLC expansion medium was constituted of 10% KSR, 2.5% FBS, 0.1 mM NEAA, 1 mM sodium pyruvate, 2 mM L-glutamine, 0.1 mM 2-mercaptoethanol, 100 U/ml penicillin, 0.1 mg/ml […] streptomycin, […] forskolin, and 10 μM rolipram. The entire medium was changed every 2 days from c3. Cytokines/compounds for induction of female fate were provided from c3 to the end of culture. RA and BMP concentrations used were 100 nM and 300 ng/ml, respectively, unless otherwise specified. Brightfield and fluorescence images were captured using an IX73 inverted microscope (Olympus).
Immunofluorescence (IF) analysis was performed as described previously (Hayashi et al, 2012). The following primary antibodies were used: chicken anti-GFP (ab13970; Abeam), rabbit anti-DDX4 (ab13840; Abeam), mouse anti-DDX4 (ab27591; Abeam), rabbit anti-DAZL (ab34129; Abeam), goat anti-DAZL (sc-27333; Santa Cruz), rabbit anti-STRA8 (ab49602; Abeam), mouse anti-SYCP3 (ab97672; Abeam) and rabbit anti-TEX14 (ab41733; Abeam)IgG. The following secondary antibodies were used: Alexa Fluor 488-goat anti-mouse or chicken IgG; Alexa Fluor 568-goat anti-rabbit IgG and Alexa Fluor 633-goat anti-mouse, anti-chicken IgG; Alexa Fluor 488-donkey anti-mouse IgG; Alexa Fluor 568-donkey anti-rabbit IgG and Alexa Fluor 633-donkey anti-goat IgG. IF images were acquired using a confocal microscope [FV1000 (Olympus) or LSM780 (Zeiss)].

[3] = tested on: BMP signaling pathway; assay: BMP signaling in PGCLC: pSMAD1/5/8 (Western blot) and Id1/Id2 expression; type: cell-based, mouse; conditions: PGCLC stimulated by RA and BMP2
Description: For Western blot analysis, 5×10^4 cells were lysed in SDS sample buffer [62.5 mM Tris-HCl (pH 6.8), 2% SDS, 10% glycerol, 0.025% bromophenol blue and 0.14 M-mercaptoethanol] at 90° C. for 5 min. For detection of phosphorylated (p)SMAD1/5/8, the cells were treated with PhosSTOP (Roche) and complete protease inhibitor cocktail (Roche) before lysis. The extracted protein was separated by SuperSep Ace 10-20% gel (Wako), blotted on iBlot2 PVDF transfer membrane (Thermo Fisher) by iBlot2 dry blotting system (Thermo Fisher), and incubated with the primary antibody: rabbit anti-STRA8 IgG (ab49405; Abeam), mouse anti-α tubulin (T9026; Sigma-Aldrich), rabbit anti-pSMAD1/5/8 IgG (#9511; CST), or rabbit anti-SMAD1 IgG (#97435 CST). Primary antibodies were detected with goat anti-rabbit IgG or sheep anti-mouse IgG conjugated to HRP (A0545, M8642; Sigma-Aldrich), followed by Chemi-Lumi One Super (Nacalai). Chemiluminescence image acquisition and analysis was performed using the Fusion Solo system and Fusion-Capt software (M & S Instruments).
(§2) qPCR was performed using CFX384 (Bio-Rad) and Power SYBR Green (ABI, Foster City, Calif.) according to the manufacturer's instructions. Template cDNA was prepared as described in the “Transcriptome analysis” section and the primers used are listed in Primers.

[4] = tested on: female germ cell fate in embryos; assay: Administration of LDN193189 to pregnant females, germ cell fate at E14.5; type: in vivo, mouse
Description: To administer LDN-193189 to pregnant females (ICR), LDN-193189 (sm10559; Sigma-Aldrich) is dissolved in sterile water, and 2.5 mg LDN-193189 was injected intraperitoneally every 12 hours from E11 to E14 per kg body weight.
as §2

[5] = tested on: PGCLC; assay: CsA or FK506 alone at various concentrations on PGCLC proliferation (fold difference d7/d1); type: cell-based, mouse; conditions: 10, 5, 1, 0 μM, in place of FR10
[6] = tested on: BV (+) d4 PGCLCs; assay: Compound library screening for PGCLC proliferation (BV fluorescence by cell analyzer); type: cell-based, mouse; conditions: 10 μM; day 7 of culture
Description: d4 PGCLC was seeded by FACS on m220-5 feeders in 96-well plates and BV fluorescence was monitored by cell analyzer (Cellavista; SynenTec). Fluorescence photograph for BV was taken by Cellavista cell analyzer with the following settings: 10× objectives; exposure time: 140 μsec; gain: 4×; binning: 4×4; excitation: 500/24 nm; emission: 542/27 nm. BV fluorescence was detected using the following algorithm/attribute parameters: sensitivity: 10; region merging: 200; min. granule intensity: 50; well edge distance: 200; contrast: 1; size: 3,000; intensity: 255; roughness: 500; granularity: 100; granule intensity: 255; granule count: 10,000; longishness: 100; compactness: 1. The value of “cell nucleus” was used for the detection of BV fluorescence.
The compound library was screened at concentrations of 10 μM and 1 μM. […] 200 BV (+) d4 PGCLCs induced from BDF1-2 ESC were seeded in the wells of a 96-well plate, and BV fluorescence was measured on the Cellavista cell analyzer on day 1 of culture (c1), c3, c5 and c7. The value of “cell nucleus” was used for the detection of BV fluorescence. […] For each compound, the fold difference in BV fluorescence between c1 and c7 was calculated for each compound and compounds with a fold difference value exceeding 3SD of the mean of the negative control were identified as those that potentiate PGCLC proliferation.

[7] = tested on: d4 PGCLC; assay: Expansion culture of d4 PGCLC on m220-5 feeder (cell number fold increase); type: cell-based, mouse; conditions: 10 μM alone; BVSC BDF1-2; SCF, m220 feeder
Description: Since the m220-5 feeder treated with MMC was vulnerable to forskolin and rolipram, m220-5 cells were subcultured 3 times with both forskolin and rolipram each at 10 μM and adapted to these compounds before MMC treatment (1-2 μg/ml for 2 hr). d4 PGCLC or E9.5 PGC(BDF1×Stella-EGFP) was selected by FACS, and the cells were seeded on m220-5 cells in GMEM medium containing 10% KSR, 0.1 mM NEAA, 1 mM sodium pyruvate, 0.1 mM 2-mercaptoethanol, 100 U/ml penicillin, 0.1 mg/ml streptomycin, 2 mM L-glutamine, 2.5% FCS, 100 ng/ml SCF, 10 μM forskolin, and 10 μM rolipram. Half of the culture medium was changed every 2 days.
Expansion culture of PGC/PGCLC to investigate the combined effect of cyclosporin A (CsA) was performed as in Example [I], except that 5 μM CsA was added to the medium in addition to 10 μM forskolin and 10 μM loripram (FR10).

[8] = tested on: PGCLC induced from BVSCDT ESC(XY); assay: Screening for factors inducing female germ cell fate: DT and BV expression by FACS at c7; type: cell-based, mouse; conditions: added from c3, read at c7; RA 100 nM, cytokines 500 ng/ml; BMPs in combination with RA
Description: as §1
The preparation of d4/c0 PGCLC for FACS is described in “ESC culture/induction and PGCLC induction/culture”. To isolate germ cells in vivo, fetal gonads of BVSC, VR or SG mice were cut and processed for FACS according to the procedure described for d4/c0 PGCLC. Culture PGCLC was also prepared by the same method except that, after dissociation, the cells were washed with 0.1% BSA-DMEM containing 100 μg/ml DNase (Sigma-Aldrich), lysed DNA from dead cells was digested to prevent the formation of cell/debris clumps. Fluorescent activity of BV/SG, SC, or DT/VR was detected with FITC, Horizon V500 or PE-Texas Red channels, respectively. FACS data was analyzed using FlowJo or FACS Diva software package.
In the signal inhibitory experiment, LDN193189 (#04-0074; Stemgent) and BMS493 (B6688; Sigma-Aldrich) dissolved in DMSO were used as ALK2/3 inhibitor and RAR inhibitor, respectively.

C=C[C@@]1(C)CC(=O)[C@]2(O)[C@@]3(C)[C@@H](O)CCC(C)(C)[C@@H]3[C@H](O)[C@H](OC(C)=O)[C@@]2(C)O1 [forskolin]
cAMP concentration in PGCLC [1]: about 4 nM/1×10^4 d4 PGCLC

c1ccc2c(-c3cnn4cc(-c5ccc(N6CCNCC6)cc5)cnc34)ccnc2c1 [LDN193189]
induction of VR/DDX4 and SCP3 (+) cells (meiotic entry) [2]: blocked RA- and BMP2-induced VR activation and meiotic entry in a dose-dependent manner
pSMAD1/5/8 and Id1, Id2 expression [3]: blocked such effects
progression to female germ cell fate ([4]; every 12 hr from E11.5 to E14.0, read at E14.5): caused a significant impairment of progression to female germ cell fate
expression of key genes of late PGC/female germ cell development (qPCR) ([4]; female VR(+) cells at E14.5): up-regulated key genes in late PGC/female germplasm development
male germ cell development (qPCR) ([4]; male VR(+) cells at E14.5): unaffected

C=CC[C@@H]1/C=C(\C)C[C@H](C)C[C@H](OC)[C@H]2O[C@@](O)(C(=O)C(=O)N3CCCC[C@H]3C(=O)O[C@H](/C(C)=C/[C@@H]3CC[C@@H](O)[C@H](OC)C3)[C@H](C)[C@@H](O)CC1=O)[C@H](C)C[C@@H]2OC [FK506, tacrolimus]
proliferative effect on PGCLCs [5]: did not have a proliferative effect

COc1cccc(Nc2c(C(N)=O)cnc3c(C)cc(S(=O)(=O)c4cccc(C(=O)N(C)C)c4)cc23)c1 [GSK256066]
colony formation of BV(+) cells [6]: formation of plural colonies with unique flat morphology

CC1(C)CC=C(C#Cc2ccccc2)c2cc(/C=C/c3ccc(C(=O)O)cc3)ccc21 [BMS493]
induction of VR/DDX4 and SCP3 (+) cells (meiotic entry) [2]: abolished upregulation of VR/DDX4 as well as induction of SCP3

COc1ccc(C2CNC(=O)C2)cc1OC1CCCC1 (centres unmarked) [rolipram]
cAMP concentration in PGCLC [1]: about 4 nM/1×10^4 d4 PGCLC
effect on proliferation of d4 PGCLC (compound alone) [7]: relatively mild

B1: BMP5: bone morphogenetic protein 5 cytokine (R&D Systems) (protein, UniProt P22003 317-454, looked up)
Bone morphogenetic protein 5: AANKRKNQNRNKSSSHQDSSRMSSVGDYNTSEQKQACKKHELYVSFRDLGWQDWIIAPEGYAAFYCDGECSFPLNAHMNATNHAIVQTLVHLMFPDHVPKPCCAPTKLNAISVLYFDDSSNVILKKYRNMVVRSCGCH
induction of VR/DDX4 and SCP3 (+) cells (meiotic entry) [2]: able to induce VR/DDX4 and SCP3(+) cells
DT and BV expression in BV (+) cells [8]: strongly activated DT and simultaneously down-regulated BV

B2: BMP4: bone morphogenetic protein 4 cytokine (R&D Systems) (protein, UniProt P12644 293-408, looked up)
Bone morphogenetic protein 4: SPKHHSQRARKKNKNCRRHSLYVDFSDVGWNDWIVAPPGYQAFYCHGDCPFPLADHLNSTNHAIVQTLVNSVNSSIPKACCVPTELSAISMLYLDEYDKVVLKNYQEMVVEGCGCR
induction of VR/DDX4 and SCP3 (+) cells (meiotic entry) [2]: able to induce VR/DDX4 and SCP3(+) cells
DT and BV expression in BV (+) cells [8]: strongly activated DT and simultaneously down-regulated BV

B3: BMP7: bone morphogenetic protein 7 cytokine (R&D Systems) (protein, UniProt P18075 293-431, looked up)
Bone morphogenetic protein 7: STGSKQRSQNRSKTPKNQEALRMANVAENSSSDQRQACKKHELYVSFRDLGWQDWIIAPEGYAAYYCEGECAFPLNSYMNATNHAIVQTLVHFINPETVPKPCCAPTQLNAISVLYFDDSSNVILKKYRNMVVRACGCH
induction of VR/DDX4 and SCP3 (+) cells (meiotic entry) [2]: able to induce VR/DDX4 and SCP3(+) cells
DT and BV expression in BV (+) cells [8]: strongly activated DT and simultaneously down-regulated BV
